Experiment [1] addresses Epidermal growth factor receptor (Homo sapiens, UniProt P00533). As to the kind of experiment: Inhibition of wild type EGFR (unknown origin) assessed as inhibition of 33[Pi] incorporation after 60 mins by scintillation counting.
Experiment [2] has as its target Vascular endothelial growth factor receptor 2 (Homo sapiens, UniProt P35968). In words: Inhibition of VEGFR2 (unknown origin) assessed as inhibition of 33[Pi] incorporation after 60 mins by scintillation counting.

Structures are written as SMILES.

Chain of Vascular endothelial growth factor receptor 2 (P35968 whole entry): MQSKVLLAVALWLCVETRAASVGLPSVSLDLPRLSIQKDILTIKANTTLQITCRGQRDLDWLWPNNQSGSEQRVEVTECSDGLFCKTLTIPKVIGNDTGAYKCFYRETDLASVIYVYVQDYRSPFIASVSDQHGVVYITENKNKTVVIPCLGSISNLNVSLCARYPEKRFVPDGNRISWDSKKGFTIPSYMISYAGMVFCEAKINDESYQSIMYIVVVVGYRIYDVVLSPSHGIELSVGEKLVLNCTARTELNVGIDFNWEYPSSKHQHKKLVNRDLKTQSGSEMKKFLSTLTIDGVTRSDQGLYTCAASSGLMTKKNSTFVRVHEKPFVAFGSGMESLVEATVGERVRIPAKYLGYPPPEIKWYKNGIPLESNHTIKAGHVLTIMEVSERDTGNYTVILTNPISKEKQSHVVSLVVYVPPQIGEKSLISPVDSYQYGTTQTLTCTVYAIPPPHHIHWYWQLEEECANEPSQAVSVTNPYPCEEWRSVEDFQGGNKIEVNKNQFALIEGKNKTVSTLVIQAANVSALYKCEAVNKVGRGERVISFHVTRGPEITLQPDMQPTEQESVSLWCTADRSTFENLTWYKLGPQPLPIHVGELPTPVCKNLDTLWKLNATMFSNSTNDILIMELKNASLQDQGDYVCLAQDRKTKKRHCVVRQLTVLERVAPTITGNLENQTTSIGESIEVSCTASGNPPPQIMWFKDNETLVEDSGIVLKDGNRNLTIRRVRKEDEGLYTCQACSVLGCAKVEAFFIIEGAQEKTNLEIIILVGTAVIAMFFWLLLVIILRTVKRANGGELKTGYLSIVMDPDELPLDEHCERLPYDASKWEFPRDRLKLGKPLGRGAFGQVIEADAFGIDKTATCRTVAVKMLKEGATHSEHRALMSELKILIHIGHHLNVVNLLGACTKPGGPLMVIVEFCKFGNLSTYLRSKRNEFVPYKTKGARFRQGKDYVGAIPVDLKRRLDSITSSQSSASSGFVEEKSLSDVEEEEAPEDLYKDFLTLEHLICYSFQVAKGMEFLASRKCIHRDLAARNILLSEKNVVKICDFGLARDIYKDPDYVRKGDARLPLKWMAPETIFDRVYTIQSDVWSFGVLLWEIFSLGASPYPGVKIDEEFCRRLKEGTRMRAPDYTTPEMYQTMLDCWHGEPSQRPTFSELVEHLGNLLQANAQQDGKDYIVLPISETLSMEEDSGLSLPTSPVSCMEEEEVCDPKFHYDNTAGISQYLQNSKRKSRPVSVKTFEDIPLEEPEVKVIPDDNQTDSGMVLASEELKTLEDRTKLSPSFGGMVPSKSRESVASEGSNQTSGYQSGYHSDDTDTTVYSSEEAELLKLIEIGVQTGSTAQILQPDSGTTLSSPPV
Chain of Epidermal growth factor receptor (P00533 whole entry): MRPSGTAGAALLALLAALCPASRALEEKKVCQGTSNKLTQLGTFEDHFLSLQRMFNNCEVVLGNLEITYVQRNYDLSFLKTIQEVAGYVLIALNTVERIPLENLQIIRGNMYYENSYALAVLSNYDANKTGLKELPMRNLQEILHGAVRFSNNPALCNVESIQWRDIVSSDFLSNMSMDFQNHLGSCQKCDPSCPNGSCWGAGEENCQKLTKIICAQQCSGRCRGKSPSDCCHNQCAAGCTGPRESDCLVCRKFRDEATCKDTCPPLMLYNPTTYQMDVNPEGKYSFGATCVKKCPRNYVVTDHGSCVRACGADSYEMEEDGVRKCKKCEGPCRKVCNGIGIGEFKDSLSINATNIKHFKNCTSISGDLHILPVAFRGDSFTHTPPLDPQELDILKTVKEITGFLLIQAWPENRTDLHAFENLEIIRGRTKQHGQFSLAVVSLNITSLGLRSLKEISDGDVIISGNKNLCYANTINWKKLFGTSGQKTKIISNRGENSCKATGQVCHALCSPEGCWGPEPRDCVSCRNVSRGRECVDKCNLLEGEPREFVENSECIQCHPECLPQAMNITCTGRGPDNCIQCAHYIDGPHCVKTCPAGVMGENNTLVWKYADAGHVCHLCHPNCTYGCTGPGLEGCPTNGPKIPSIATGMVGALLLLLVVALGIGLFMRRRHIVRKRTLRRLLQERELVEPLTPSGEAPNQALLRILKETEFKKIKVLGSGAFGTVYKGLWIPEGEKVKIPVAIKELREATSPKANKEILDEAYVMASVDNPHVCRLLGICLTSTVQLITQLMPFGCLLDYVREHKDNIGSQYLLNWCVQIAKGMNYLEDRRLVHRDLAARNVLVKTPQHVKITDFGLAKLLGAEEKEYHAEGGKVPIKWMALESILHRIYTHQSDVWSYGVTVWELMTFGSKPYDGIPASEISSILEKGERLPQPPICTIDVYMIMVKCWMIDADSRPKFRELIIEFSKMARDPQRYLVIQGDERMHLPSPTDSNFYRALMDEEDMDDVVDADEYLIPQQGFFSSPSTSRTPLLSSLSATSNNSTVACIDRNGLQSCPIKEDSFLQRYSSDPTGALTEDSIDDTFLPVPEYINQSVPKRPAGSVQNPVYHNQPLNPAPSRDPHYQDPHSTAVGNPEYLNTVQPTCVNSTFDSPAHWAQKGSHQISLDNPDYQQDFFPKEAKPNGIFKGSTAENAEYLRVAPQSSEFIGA

On to `COc1cc2nc(Cl)nc(Nc3ccc(S(=O)(=O)O)cc3)c2cc1OC`, for which the IC50 in experiment [1] and in experiment [2] was more than 100 µM throughout.
Take `COc1cc2nc(Cl)nc(Nc3ccc(S(=O)(=O)Nc4nccs4)cc3)c2cc1OC`: the figures for the IC50 in experiment [1] and in experiment [2] were 9.7 µM and 7.79 µM, respectively.
In the case of `CN(C)S(=O)(=O)c1ccc(Nc2nc(Cl)nc3cc4c(cc23)OCO4)cc1`, the IC50 – broadly, the concentration that inhibits the measured activity by half – in experiment [1] was 18.3 µM; in experiment [2] it was 23.4 µM.
In the case of `COc1cc2nc(Cl)nc(Nc3ccc(NC(C)=O)cc3)c2cc1OC`, the IC50 worked out at 37.6 µM in experiment [1] and 1.99 µM in experiment [2].
Turning to `COc1cc2nc(Cl)nc(Nc3ccc(C(N)=O)cc3)c2cc1OC`, the results for the IC50 in experiment [1] and in experiment [2] were 0.9 µM and 1.17 µM, respectively.
For the compound `COc1cc2nc(Cl)nc(Nc3ccc(S(N)(=O)=O)cc3)c2cc1OC`, the IC50 stood at 2.37 µM in experiment [1] and 1.02 µM in experiment [2].
In the case of `CN(C)c1ccc(Nc2nc(Cl)nc3cc4c(cc23)OCO4)cc1`, the IC50 in experiment [1] and in experiment [2] was more than 100 µM each time.
On to `COc1cc2nc(Cl)nc(Nc3ccc(N(C)C)cc3)c2cc1OC`, for which the results for the IC50 in experiment [1] and in experiment [2] were 36 µM and 39.3 µM, respectively.
In the case of `CS(=O)(=O)c1ccc(Nc2nc(Cl)nc3cc4c(cc23)OCO4)cc1`, the IC50 in experiment [1] and in experiment [2] was more than 100 µM each time.
For `COc1cc2nc(Cl)nc(Nc3ccc(S(C)(=O)=O)cc3)c2cc1OC`, the results for the IC50 in experiment [1] and in experiment [2] were 61.5 µM and more than 100 µM, respectively.
For `CNS(=O)(=O)c1ccc(Nc2nc(Cl)nc3cc(OC)c(OC)cc23)cc1` the same measures were 1.63 µM and 0.85 µM.
For `O=S(=O)(Nc1nccs1)c1ccc(Nc2nc(Cl)nc3cc4c(cc23)OCO4)cc1`, the IC50 in experiment [1] and in experiment [2] was more than 100 µM each time.
With `NS(=O)(=O)c1ccc(Nc2nc(Cl)nc3cc4c(cc23)OCO4)cc1`, the IC50 in experiment [1] turned out to be 34.6 µM; in experiment [2], 26.9 µM.
For the compound `COc1cc2nc(Cl)nc(Nc3ccc(O)cc3)c2cc1OC`, the IC50 was 4.3 µM in experiment [1] and 2.1 µM in experiment [2].
For the compound `COc1cc2nc(Cl)nc(Nc3ccc(C(=O)O)cc3)c2cc1OC`, the IC50 in experiment [1] and in experiment [2] was more than 100 µM in each case.
In the case of `COc1cc2nc(Cl)nc(Nc3ccc(S(=O)(=O)N(C)C)cc3)c2cc1OC`, the IC50 in experiment [1] was found to be 67.2 µM; in experiment [2], 43.3 µM.
Regarding `CN(C)S(=O)(=O)c1ccc(Nc2nc(Cl)nc3ccccc23)cc1`, the 50% inhibitory concentration (IC50) in experiment [1] and in experiment [2] was more than 100 µM in each case.

For the origin of these results see ChEMBL document CHEMBL3098085, “Novel 2-chloro-4-anilino-quinazoline derivatives as EGFR and VEGFR-2 dual inhibitors” (Eur J Med Chem, 2014).
